According to the CombiSolv-Exp solvation set (Vermeire and Green 2021):

Assay: solvent given as SMILES

Fc1ccccc1
Details	solvation free energy, 298 K [kcal/mol]
in C1CCOC1	-4.94
in C1COCCO1	-4.69
in CC(O)CO	-3.53
in CCCCCC	-4.15
in CCCCCCC	-4.13
in CCCCCCCCCC	-3.48
in CCCCCCCCCCCCCCCC	-3.81
in CN(C)C=O	-4.75
in COCCO	-4.4
in N#Cc1ccccc1	-4.53
in NC=O	-2.8
in O	-0.8
in OCCO	-2.91

CCCOC(=O)c1ccccc1C(=O)OCCC
Details	solvation free energy, 298 K [kcal/mol]
in O	-7.56

Clc1ccc(-c2cc(Cl)c(Cl)cc2Cl)cc1Cl
Details	solvation free energy, 298 K [kcal/mol]
in O	-3.36

CCOC(=O)c1ccc(N)cc1
Details	solvation free energy, 298 K [kcal/mol]
in CC(C)CCO	-11.1
in CCCC(C)O	-11.2

c1ccc2c(c1)Cc1ccccc1O2
Details	solvation free energy, 298 K [kcal/mol]
in C1CCOC1	-10.9
in C1COCCO1	-10.8
in CC(C)(C)O	-9.25
in CC(C)CC(C)(C)C	-9.39
in CC(C)CC(C)O	-9.34
in CC(C)CCO	-9.39
in CC(C)CO	-9.24
in CC(C)O	-9.22
in CC(C)OC(C)C	-9.95
in CCC(C)(C)O	-9.49
in CCC(C)O	-9.33
in CCCC(C)CO	-9.42
in CCCC(C)O	-9.43
in CCCCCC	-9.63
in CCCCCCC	-9.67
in CCCCCCCC	-9.68
in CCCCCCCCCC	-9.67
in CCCCCCCCCCO	-9.67
in CCCCCCCCO	-9.67
in CCCCCCCO	-9.66
in CCCCCCO	-9.63
in CCCCCO	-9.57
in CCCCO	-9.53
in CCCCOCCCC	-10.1
in CCCO	-9.41
in CCO	-9.19
in CCOCC	-10.5
in CO	-9.2
in COC(C)(C)C	-10.3
in ClC(Cl)(Cl)Cl	-10.8
in ClCCCl	-10.8

CSc1nc(N=[N+]=[N-])nc(NC(C)C)n1
Details	solvation free energy, 298 K [kcal/mol]
in O	-8.19

CCCCCBr
Details	solvation free energy, 298 K [kcal/mol]
in O	-0.1

CCCCCCCCCC(C)C
Details	solvation free energy, 298 K [kcal/mol]
in O	4.04

O=C(O)c1ccc([N+](=O)[O-])cc1
Details	solvation free energy, 298 K [kcal/mol]
in C1CCOC1	-13.3
in C1COCCO1	-13.1
in CC(C)(C)O	-12.4
in CC(C)CCO	-11.9
in CC(C)CO	-11.9
in CC(C)O	-12.2
in CC(C)OC(C)C	-11.3
in CC(C)OCCO	-12.6
in CC(O)COC(C)(C)C	-12.6
in CCC(C)O	-12.1
in CCCC(C)O	-12
in CCCCCCCCCCO	-11.7
in CCCCCCCCO	-11.8
in CCCCCCCO	-11.9
in CCCCCCO	-12
in CCCCCO	-12
in CCCCCOC(C)=O	-11.7
in CCCCO	-12
in CCCCOC(C)=O	-11.9
in CCCCOCCO	-12.5
in CCCO	-12.2
in CCCOCCO	-12.6
in CCO	-12.3
in CCOC(C)=O	-12.2
in CCOCC	-12.2
in CCOCCO	-12.8
in CN(C)C=O	-12.8
in CO	-12.5
in COC(C)=O	-12.4
in COC(C)CCO	-12.6
in O	-9.44

CCCCCCCO
Details	solvation free energy, 298 K [kcal/mol]
in CC(C)CC(C)(C)C	-5.82
in CCCCCC	-5.59
in CCCCCCC	-5.59
in CCCCCCCCCCCCCCCC	-5.43
in CCCCCCO	-8.08
in CO	-7.6
in NC=O	-6.38
in O	-4.24

Cc1ccccc1Cl
Details	solvation free energy, 298 K [kcal/mol]
in O	-1.14

CCOCOCC
Details	solvation free energy, 298 K [kcal/mol]
in CCCCCl	-4.67
in ClC(Cl)(Cl)Cl	-4.97
in ClCCl	-5.47
in O	-2.96

CCCCC(C)CCC (stereo unspecified)
Details	solvation free energy, 298 K [kcal/mol]
in O	3.57

Cc1cccc(C(C)C)c1
Details	solvation free energy, 298 K [kcal/mol]
in O	-0.72

OCCOCCOCCO
Details	solvation free energy, 298 K [kcal/mol]
in CCCCCCC	-7.04

COC(=O)c1ccc([N+](=O)[O-])cc1
Details	solvation free energy, 298 K [kcal/mol]
in CN(C)C=O	-10.8
in O	-6.76

CC(C)OC(C)C
Details	solvation free energy, 298 K [kcal/mol]
in Brc1cccc2ccccc12	-3.49
in CC(=O)N(C)C	-3.41
in CC(=O)OCc1ccccc1	-3.49
in CC(C)CC(C)(C)C	-3.78
in CCC(C)=O	-3.9
in CCC(C)Cl	-4.16
in CCC(C)O	-3.75
in CCCCCCCC	-3.84
in CCCCCCCCCCO	-3.43
in CCCCCCCCO	-3.63
in CCCCCl	-4.18
in CCCCN(C=O)CCCC	-3.48
in CCCCO	-3.75
in CCCO	-3.79
in CCN1CCCC1=O	-3.23
in CCN(CC)C(C)=O	-3.51
in CCNC(C)=O	-3.33
in CCNC=O	-3.23
in CN1CCCCC1=O	-3.27
in CN(C)C=O	-3.19
in CNC(C)=O	-3.25
in CNC=O	-3.04
in CO	-3.82
in ClC(Cl)(Cl)Cl	-4.23
in [2H]O[2H]	-1.56
in c1ccc2ncccc2c1	-3.45
